Results reported in PubChem BioAssay (NCI).
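Tested at 5 concentrations; 48 h exposure; 96-well plates; endpoints linearly interpolated, else capped at highest concentration. TGI: concentration producing complete growth inhibition.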

What was measured:
Experiment in all cases: growth of human tumour cells (NCI), 48 h
UACC-257 melanoma = tested on: UACC-257 melanoma
CAKI-1 renal = tested on: CAKI-1 renal
HCT-116 colon = tested on: HCT-116 colon
MDA-N = tested on: MDA-N
COLO 205 colon = tested on: COLO 205 colon
K-562 leukemia = tested on: K-562 leukemia
OVCAR-5 ovarian = tested on: OVCAR-5 ovarian
HT29 colon = tested on: HT29 colon
T-47D breast = tested on: T-47D breast
MDA-MB-435 = tested on: MDA-MB-435
UACC-62 melanoma = tested on: UACC-62 melanoma
SK-OV-3 ovarian = tested on: SK-OV-3 ovarian
SK-MEL-5 melanoma = tested on: SK-MEL-5 melanoma
PC-3 prostate = tested on: PC-3 prostate
SNB-75 CNS = tested on: SNB-75 CNS
HS 578T breast = tested on: HS 578T breast
BT-549 breast = tested on: BT-549 breast
M14 melanoma = tested on: M14 melanoma
OVCAR-8 ovarian = tested on: OVCAR-8 ovarian
786-0 renal = tested on: 786-0 renal
A549 NSCLC = tested on: A549 NSCLC
UO-31 renal = tested on: UO-31 renal
NCI-H522 lung = tested on: NCI-H522 lung
NCI/ADR-RES ovarian = tested on: NCI/ADR-RES ovarian
OVCAR-4 ovarian = tested on: OVCAR-4 ovarian
ACHN renal = tested on: ACHN renal
SW-620 colon = tested on: SW-620 colon
HL-60(TB) leukemia = tested on: HL-60(TB) leukemia
HOP-92 NSCLC = tested on: HOP-92 NSCLC
SN12C renal = tested on: SN12C renal
SF-268 CNS = tested on: SF-268 CNS
IGROV1 ovarian = tested on: IGROV1 ovarian
MCF7 breast = tested on: MCF7 breast
KM12 colon = tested on: KM12 colon
SF-295 CNS = tested on: SF-295 CNS
TK-10 renal = tested on: TK-10 renal
MDA-MB-231 breast = tested on: MDA-MB-231 breast
SF-539 CNS = tested on: SF-539 CNS
EKVX NSCLC = tested on: EKVX NSCLC
NCI-H460 lung = tested on: NCI-H460 lung
RXF 393 renal = tested on: RXF 393 renal
CCRF-CEM leukemia = tested on: CCRF-CEM leukemia
A498 renal = tested on: A498 renal
NCI-H23 lung = tested on: NCI-H23 lung
SR leukemia = tested on: SR leukemia
LOX IMVI melanoma = tested on: LOX IMVI melanoma
OVCAR-3 ovarian = tested on: OVCAR-3 ovarian
HCT-15 colon = tested on: HCT-15 colon
NCI-H226 lung = tested on: NCI-H226 lung
MOLT-4 leukemia = tested on: MOLT-4 leukemia
SK-MEL-2 melanoma = tested on: SK-MEL-2 melanoma
RPMI-8226 leukemia = tested on: RPMI-8226 leukemia
DU-145 prostate = tested on: DU-145 prostate
U251 CNS = tested on: U251 CNS
SNB-19 CNS = tested on: SNB-19 CNS

Compound: CSc1ncc2c(n1)-c1ccccc1OC2N1CCCCC1 (stereo not given)
- TGI (UACC-257 melanoma): > 100 µM
- TGI (CAKI-1 renal): 66.3 µM
- TGI (HCT-116 colon): > 100 µM
- TGI (MDA-N): > 100 µM
- TGI (COLO 205 colon): > 100 µM
- TGI (K-562 leukemia): > 100 µM
- TGI (OVCAR-5 ovarian): > 100 µM
- TGI (HT29 colon): > 100 µM
- TGI (T-47D breast): 68.2 µM
- TGI (MDA-MB-435): 87.2 µM
- TGI (UACC-62 melanoma): > 100 µM
- TGI (SK-OV-3 ovarian): > 100 µM
- TGI (SK-MEL-5 melanoma): 45.8 µM
- TGI (PC-3 prostate): > 100 µM
- TGI (SNB-75 CNS): > 100 µM
- TGI (HS 578T breast): 99.2 µM
- TGI (BT-549 breast): 86.2 µM
- TGI (M14 melanoma): > 100 µM
- TGI (OVCAR-8 ovarian): > 100 µM
- TGI (786-0 renal): > 100 µM
- TGI (A549 NSCLC): > 100 µM
- TGI (UO-31 renal): > 100 µM
- TGI (NCI-H522 lung): 42.3 µM
- TGI (NCI/ADR-RES ovarian): > 100 µM
- TGI (OVCAR-4 ovarian): > 100 µM
- TGI (ACHN renal): > 100 µM
- TGI (SW-620 colon): > 100 µM
- TGI (HL-60(TB) leukemia): 49 µM
- TGI (HOP-92 NSCLC): 84.2 µM
- TGI (SN12C renal): > 100 µM
- TGI (SF-268 CNS): > 100 µM
- TGI (IGROV1 ovarian): > 100 µM
- TGI (MCF7 breast): 87.6 µM
- TGI (KM12 colon): > 100 µM
- TGI (SF-295 CNS): > 100 µM
- TGI (TK-10 renal): 73.2 µM
- TGI (MDA-MB-231 breast): > 100 µM
- TGI (SF-539 CNS): > 100 µM
- TGI (EKVX NSCLC): > 100 µM
- TGI (NCI-H460 lung): > 100 µM
- TGI (RXF 393 renal): > 100 µM
- TGI (CCRF-CEM leukemia): 49.8 µM
- TGI (A498 renal): 49.9 µM
- TGI (NCI-H23 lung): > 100 µM
- TGI (SR leukemia): 53.2 µM
- TGI (LOX IMVI melanoma): 46.7 µM
- TGI (OVCAR-3 ovarian): > 100 µM
- TGI (HCT-15 colon): 84.5 µM
- TGI (NCI-H226 lung): > 100 µM
- TGI (MOLT-4 leukemia): 58 µM
- TGI (SK-MEL-2 melanoma): 96.6 µM
- TGI (RPMI-8226 leukemia): 65.9 µM
- TGI (DU-145 prostate): > 100 µM
- TGI (U251 CNS): > 100 µM
- TGI (SNB-19 CNS): > 100 µM
